The target in assay [1] is Carbonic anhydrase 5B, mitochondrial (Homo sapiens) (UniProt Q9Y2D0).
Description: Binding affinity to human carbonic anhydrase 5B assessed as activation constant by phenol red dye based stopped-flow method
Assay [2] concerns the target Carbonic anhydrase 4 (Homo sapiens) (UniProt P22748).
Description: Binding affinity to human carbonic anhydrase 4 assessed as activation constant by phenol red dye based stopped-flow method
In a further assay the target is Acetylcholinesterase (Electrophorus electricus, UniProt O42275).
Assay [3] deals with Carbonic anhydrase 7 (Homo sapiens) (UniProt P43166).
Description: Binding affinity to human carbonic anhydrase 7 assessed as activation constant by phenol red dye based stopped-flow method
For another assay, the target named is Cholinesterase (Equus caballus, UniProt P81908).
Assay [4] concerns the target Carbonic anhydrase 1 (Homo sapiens) (UniProt P00915).
Description: Binding affinity to human carbonic anhydrase 1 assessed as activation constant by phenol red dye based stopped-flow method
In assay [5] the target is Carbonic anhydrase 2 (Homo sapiens) (UniProt P00918).
Description: Binding affinity to human carbonic anhydrase 2 assessed as activation constant by phenol red dye based stopped-flow method

The source of these data is ChEMBL document CHEMBL5579900, “Enhanced Recognition Memory through Dual Modulation of Brain Carbonic Anhydrases and Cholinesterases” (J Med Chem, 2024).

Sequence of Cholinesterase (P81908 whole entry): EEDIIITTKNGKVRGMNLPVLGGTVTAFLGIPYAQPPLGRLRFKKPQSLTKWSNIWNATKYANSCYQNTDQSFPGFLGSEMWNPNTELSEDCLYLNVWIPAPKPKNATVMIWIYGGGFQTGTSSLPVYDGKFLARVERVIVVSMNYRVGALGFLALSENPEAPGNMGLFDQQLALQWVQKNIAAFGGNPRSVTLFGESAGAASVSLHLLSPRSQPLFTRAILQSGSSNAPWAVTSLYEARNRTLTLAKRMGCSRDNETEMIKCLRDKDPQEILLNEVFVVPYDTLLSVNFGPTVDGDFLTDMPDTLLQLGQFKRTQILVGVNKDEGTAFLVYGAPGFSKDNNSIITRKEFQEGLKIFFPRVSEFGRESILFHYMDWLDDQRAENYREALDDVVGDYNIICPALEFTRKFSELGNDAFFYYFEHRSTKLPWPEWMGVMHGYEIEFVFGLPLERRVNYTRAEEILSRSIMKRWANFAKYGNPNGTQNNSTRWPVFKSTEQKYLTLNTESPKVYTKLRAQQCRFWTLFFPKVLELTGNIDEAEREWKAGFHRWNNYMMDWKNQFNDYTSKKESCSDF
Sequence of Carbonic anhydrase 5B, mitochondrial (Homo sapiens) (Q9Y2D0 whole entry): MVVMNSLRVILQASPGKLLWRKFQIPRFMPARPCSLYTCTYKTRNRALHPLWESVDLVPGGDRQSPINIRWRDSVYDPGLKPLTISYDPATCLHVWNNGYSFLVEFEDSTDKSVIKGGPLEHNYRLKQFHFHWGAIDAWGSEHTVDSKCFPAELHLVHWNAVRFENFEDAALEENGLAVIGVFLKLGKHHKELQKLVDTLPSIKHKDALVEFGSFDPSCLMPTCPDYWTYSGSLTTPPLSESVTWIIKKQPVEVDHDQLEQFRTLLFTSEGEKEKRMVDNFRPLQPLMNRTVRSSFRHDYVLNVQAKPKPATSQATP
Sequence of Acetylcholinesterase (O42275 whole entry): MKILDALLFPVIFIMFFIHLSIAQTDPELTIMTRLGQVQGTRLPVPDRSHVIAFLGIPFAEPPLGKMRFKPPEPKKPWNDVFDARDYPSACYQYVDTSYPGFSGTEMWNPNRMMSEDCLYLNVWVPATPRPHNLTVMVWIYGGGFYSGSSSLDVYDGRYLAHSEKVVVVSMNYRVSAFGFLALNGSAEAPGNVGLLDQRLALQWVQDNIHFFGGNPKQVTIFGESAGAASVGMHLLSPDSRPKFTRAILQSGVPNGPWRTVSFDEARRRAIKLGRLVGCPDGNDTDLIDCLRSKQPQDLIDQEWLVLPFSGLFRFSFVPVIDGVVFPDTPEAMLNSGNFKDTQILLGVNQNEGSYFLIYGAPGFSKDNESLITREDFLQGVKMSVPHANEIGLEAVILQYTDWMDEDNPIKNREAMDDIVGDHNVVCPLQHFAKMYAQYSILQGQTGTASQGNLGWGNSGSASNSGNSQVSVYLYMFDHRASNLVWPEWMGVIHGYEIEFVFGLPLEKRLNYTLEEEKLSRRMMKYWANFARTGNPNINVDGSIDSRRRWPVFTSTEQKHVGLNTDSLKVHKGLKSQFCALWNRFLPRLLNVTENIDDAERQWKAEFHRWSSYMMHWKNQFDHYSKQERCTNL
Sequence of Carbonic anhydrase 1 (Homo sapiens) (P00915 2-261 limits assumed): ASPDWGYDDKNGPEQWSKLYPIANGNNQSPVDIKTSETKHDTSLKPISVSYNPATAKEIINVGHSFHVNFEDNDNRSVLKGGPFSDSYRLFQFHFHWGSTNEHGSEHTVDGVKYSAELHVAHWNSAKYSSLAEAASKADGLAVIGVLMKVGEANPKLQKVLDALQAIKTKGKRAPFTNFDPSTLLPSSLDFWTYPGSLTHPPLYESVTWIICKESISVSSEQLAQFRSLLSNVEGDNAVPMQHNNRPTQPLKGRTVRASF
Sequence of Carbonic anhydrase 7 (Homo sapiens) (P43166 whole entry): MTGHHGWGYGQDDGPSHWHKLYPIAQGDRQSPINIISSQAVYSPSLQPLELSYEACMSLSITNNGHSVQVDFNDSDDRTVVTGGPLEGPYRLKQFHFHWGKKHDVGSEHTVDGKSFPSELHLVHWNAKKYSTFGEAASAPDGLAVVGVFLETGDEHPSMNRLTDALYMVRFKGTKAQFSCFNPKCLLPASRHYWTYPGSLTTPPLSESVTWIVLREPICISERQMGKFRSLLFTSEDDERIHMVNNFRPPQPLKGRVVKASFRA
Sequence of Carbonic anhydrase 4 (Homo sapiens) (P22748 whole entry): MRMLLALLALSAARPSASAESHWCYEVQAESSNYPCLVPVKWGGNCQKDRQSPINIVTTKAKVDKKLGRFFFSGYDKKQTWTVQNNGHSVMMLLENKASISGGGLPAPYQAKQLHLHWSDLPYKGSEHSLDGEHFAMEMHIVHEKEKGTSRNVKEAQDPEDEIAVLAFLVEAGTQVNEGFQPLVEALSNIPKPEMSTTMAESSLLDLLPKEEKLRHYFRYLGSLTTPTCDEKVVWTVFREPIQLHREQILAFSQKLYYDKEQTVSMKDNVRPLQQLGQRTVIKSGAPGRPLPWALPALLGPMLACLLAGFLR
Description for Acetylcholinesterase: Inhibition of electric eel AChE by microplate reader based analysis

As usually defined, the IC50 is the concentration that inhibits the measured activity by half. Take `N[C@@H](CCCCNC(=O)OCc1ccccc1)C(=O)NCCCCNc1c2c(nc3ccccc13)CCCC2`: the KA in assay [1] (filed as activator) stood at 1.4 µM; in assay [2] (filed as activator), 9.73 µM; in assay [3] (filed as activator), 975 nM; in assay [4] (filed as activator), 3270 nM; in assay [5] (filed as activator), 1900 nM. Also, the IC50 at Acetylcholinesterase was determined as 250 nM; on Cholinesterase, 2.5 nM.

For `N[C@@H](Cc1ccccc1)C(=O)NCCCNc1c2c(nc3ccccc13)CCCC2`, the KA is 0.971 µM in assay [1] (filed as activator); 5.85 µM in assay [2] (filed as activator); 491 nM in assay [3] (filed as activator); 893 nM in assay [4] (filed as activator); 726 nM in assay [5] (filed as activator). The IC50 on Acetylcholinesterase came to 239 nM; on Cholinesterase it was 0.22 nM.

In the case of `c1ccc2c(NCCCCCCNCCc3c[nH]cn3)c3c(nc2c1)CCCC3`, the KA in assay [1] (filed as activator) amounted to 0.5 µM; in assay [2] (filed as activator), 2.28 µM; in assay [3] (filed as activator), 386 nM; in assay [4] (filed as activator), 236 nM; in assay [5] (filed as activator), 102 nM. Further, the figures for the IC50 on Acetylcholinesterase and against Cholinesterase were 2.2 nM and 2 nM, respectively.

As to `N[C@@H](Cc1c[nH]cn1)C(=O)NCCCCCCNc1c2c(nc3ccccc13)CCCC2`, the KA was determined as 0.554 µM in assay [1] (filed as activator); 3.56 µM in assay [2] (filed as activator); 82.8 nM in assay [3] (filed as activator); 1050 nM in assay [4] (filed as activator); 283 nM in assay [5] (filed as activator). Also, the figures for the 50% inhibitory concentration (IC50) against Acetylcholinesterase and against Cholinesterase were 12.1 nM and 5.2 nM, respectively.

`COC(=O)[C@H](Cc1c[nH]c2ccccc12)NCCCCCCNc1c2c(nc3ccccc13)CCCC2`: the KA in assay [1] (filed as activator) amounted to 5.1 µM; in assay [2] (filed as activator), 2.23 µM; in assay [3] (filed as activator), 637 nM; in assay [4] (filed as activator) it was 436 nM; in assay [5] (filed as activator) it was 631 nM. Further, the concentration for half-maximal inhibition (IC50) against Acetylcholinesterase amounted to 23.3 nM; on Cholinesterase, 2.8 nM.

As for `COC(=O)[C@H](Cc1ccc(OCCCCCNc2c3c(nc4ccccc24)CCCC3)cc1)NC(=O)OC(C)(C)C`, the KA was greater than 50 µM in assay [1]; greater than 50 µM in assay [2]; greater than 50000 nM in assay [3]; greater than 50000 nM in assay [4]; greater than 50000 nM in assay [5]. Besides, the IC50 at Acetylcholinesterase is 65.4 nM; on Cholinesterase, greater than 15.3 nM.

As to `COC(=O)[C@H](Cc1c[nH]cn1)NCCCCCNc1c2c(nc3ccccc13)CCCC2`, the KA in assay [1] (filed as activator) is 2.43 µM; in assay [2] (filed as activator), 3.65 µM; in assay [3] (filed as activator), 211 nM; in assay [4] (filed as activator), 311 nM; in assay [5] (filed as activator), 175 nM. Further, the half-inhibitory concentration (IC50) worked out at 143 nM at Acetylcholinesterase and 4.4 nM against Cholinesterase.

For the compound `CC(C)(C)OC(=O)N[C@@H](CCCCNC(=O)OCc1ccccc1)C(=O)NCCCCNc1c2c(nc3ccccc13)CCCC2`, the KA is greater than 50 µM in assay [1]; greater than 50 µM in assay [2]; greater than 50000 nM in assay [3]; greater than 50000 nM in assay [4]; greater than 50000 nM in assay [5]. Besides, the IC50 amounted to 327 nM at Acetylcholinesterase and 0.16 nM against Cholinesterase.

`N[C@@H](Cc1c[nH]c2ccccc12)C(=O)NCCCCCNc1c2c(nc3ccccc13)CCCC2`: the KA came out at 0.936 µM in assay [1] (filed as activator); 1.72 µM in assay [2] (filed as activator); 105 nM in assay [3] (filed as activator); 630 nM in assay [4] (filed as activator); 119 nM in assay [5] (filed as activator). In addition, the IC50 at Acetylcholinesterase is 37.8 nM; on Cholinesterase it was 1 nM.

`COC(=O)[C@H](Cc1c[nH]c2ccccc12)NCCCCCNc1c2c(nc3ccccc13)CCCC2`: the KA stood at 0.471 µM in assay [1] (filed as activator); 2.93 µM in assay [2] (filed as activator); 482 nM in assay [3] (filed as activator); 606 nM in assay [4] (filed as activator); 840 nM in assay [5] (filed as activator). Also, the IC50 came to 37.6 nM at Acetylcholinesterase and 4 nM against Cholinesterase.

Regarding `N[C@@H](Cc1c[nH]c2ccccc12)C(=O)NCCCNc1c2c(nc3ccccc13)CCCC2`, the KA was found to be 1.96 µM in assay [1] (filed as activator); 2.33 µM in assay [2] (filed as activator); 566 nM in assay [3] (filed as activator); 1010 nM in assay [4] (filed as activator); 833 nM in assay [5] (filed as activator). Further, the IC50 was determined as 58.9 nM on Acetylcholinesterase and 1.6 nM on Cholinesterase.

Take `COC(=O)[C@H](Cc1ccccc1)NCCCCCNc1c2c(nc3ccccc13)CCCC2`: the KA turned out to be 5.32 µM in assay [1] (filed as activator); 3.45 µM in assay [2] (filed as activator); 535 nM in assay [3] (filed as activator); 731 nM in assay [4] (filed as activator); 247 nM in assay [5] (filed as activator). For the same compound, the half-maximal inhibitory concentration (IC50) is 110 nM at Acetylcholinesterase and 3.8 nM at Cholinesterase.

As to `CC(C)(C)OC(=O)N[C@@H](Cc1ccccc1)C(=O)NCCCCNc1c2c(nc3ccccc13)CCCC2`, the KA in assay [1] is greater than 50 µM; in assay [2] it was greater than 50 µM; in assay [3], greater than 50000 nM; in assay [4], greater than 50000 nM; in assay [5], greater than 50000 nM. Also, the IC50 came to 158 nM at Acetylcholinesterase and 0.38 nM at Cholinesterase.

On to `c1ccc2c(NCCCCCNCCc3c[nH]cn3)c3c(nc2c1)CCCC3`, for which the KA worked out at 0.541 µM in assay [1] (filed as activator); 1.28 µM in assay [2] (filed as activator); 439 nM in assay [3] (filed as activator); 439 nM in assay [4] (filed as activator); 290 nM in assay [5] (filed as activator). The results for the 50% inhibitory concentration (IC50) on Acetylcholinesterase and against Cholinesterase were 60.2 nM and 2.4 nM, respectively.

`N[C@@H](Cc1c[nH]c2ccccc12)C(=O)NCCCCCCNc1c2c(nc3ccccc13)CCCC2`: the KA stood at 0.353 µM in assay [1] (filed as activator); 0.541 µM in assay [2] (filed as activator); 79.8 nM in assay [3] (filed as activator); 876 nM in assay [4] (filed as activator); 539 nM in assay [5] (filed as activator). Moreover, the concentration for half-maximal inhibition (IC50) came to 2.4 nM on Acetylcholinesterase and 1.2 nM on Cholinesterase.

For the compound `N[C@@H](CCCCNC(=O)OCc1ccccc1)C(=O)NCCCCCNc1c2c(nc3ccccc13)CCCC2`, the KA in assay [1] (filed as activator) is 4.97 µM; in assay [2] (filed as activator) it was 3.61 µM; in assay [3] (filed as activator), 2730 nM; in assay [4] (filed as activator), 3530 nM; in assay [5] (filed as activator), 981 nM. Moreover, the results for the IC50 on Acetylcholinesterase and against Cholinesterase were 238 nM and 0.33 nM, respectively.

Consider `COC(=O)[C@H](Cc1ccc(OCCCCCCNc2c3c(nc4ccccc24)CCCC3)cc1)NC(=O)OC(C)(C)C`, for which the KA in assay [1] was greater than 50 µM; in assay [2] it was greater than 50 µM; in assay [3], greater than 50000 nM; in assay [4], greater than 50000 nM; in assay [5] it was greater than 50000 nM. Further, the values for the IC50 against Acetylcholinesterase and against Cholinesterase were 16 nM and 0.11 nM, respectively.

As for `CC(C)(C)OC(=O)N[C@@H](CCCCNC(=O)OCc1ccccc1)C(=O)NCCCNc1c2c(nc3ccccc13)CCCC2`, the KA in assay [1] was greater than 50 µM; in assay [2], greater than 50 µM; in assay [3] it was greater than 50000 nM; in assay [4] it was greater than 50000 nM; in assay [5], greater than 50000 nM. In addition, the IC50 on Acetylcholinesterase worked out at 419 nM; at Cholinesterase, 0.25 nM.

On to `COC(=O)[C@H](CCCCNC(=O)OCc1ccccc1)NCCCCCCNc1c2c(nc3ccccc13)CCCC2`, for which the KA in assay [1] (filed as activator) was determined as 4.61 µM; in assay [2] (filed as activator), 20.2 µM; in assay [3] (filed as activator) it was 2250 nM; in assay [4] (filed as activator), 2280 nM; in assay [5] (filed as activator), 2410 nM. Moreover, the half-maximal inhibitory concentration (IC50) against Acetylcholinesterase was 35.6 nM; against Cholinesterase it was 0.29 nM.

Consider `CC(C)(C)OC(=O)N[C@@H](Cc1c[nH]c2ccccc12)C(=O)NCCCCCCNc1c2c(nc3ccccc13)CCCC2`, for which the KA in assay [1] (filed as activator) was found to be 24.2 µM; in assay [2] (filed as activator) it was 4.46 µM; in assay [3] (filed as activator) it was 1130 nM; in assay [4] (filed as activator), 1120 nM; in assay [5] (filed as activator) it was 2660 nM. For the same compound, the IC50 at Acetylcholinesterase is 15.9 nM; on Cholinesterase it was 0.26 nM.

In the case of `CC(C)(C)OC(=O)N[C@@H](Cc1c[nH]c2ccccc12)C(=O)NCCCCNc1c2c(nc3ccccc13)CCCC2`, the KA in assay [1] (filed as activator) came to 8.64 µM; in assay [2] (filed as activator) it was 8.58 µM; in assay [3] (filed as activator), 2630 nM; in assay [4] (filed as activator), 2620 nM; in assay [5] (filed as activator), 7650 nM. The figures for the 50% inhibitory concentration (IC50) at Acetylcholinesterase and against Cholinesterase were 82.3 nM and 0.21 nM, respectively.

On to `N[C@@H](Cc1c[nH]c2ccccc12)C(=O)NCCCCNc1c2c(nc3ccccc13)CCCC2`, for which the KA worked out at 0.703 µM in assay [1] (filed as activator); 3.12 µM in assay [2] (filed as activator); 289 nM in assay [3] (filed as activator); 542 nM in assay [4] (filed as activator); 413 nM in assay [5] (filed as activator). The IC50 is 145 nM against Acetylcholinesterase and 2.4 nM against Cholinesterase.

With `CC(C)(C)OC(=O)N[C@@H](Cc1cn(C(=O)OC(C)(C)C)cn1)C(=O)NCCCCNc1c2c(nc3ccccc13)CCCC2`, the KA in assay [1] was greater than 50 µM; in assay [2], greater than 50 µM; in assay [3], greater than 50000 nM; in assay [4], greater than 50000 nM; in assay [5] (filed as activator), 12400 nM. Further, the IC50 on Acetylcholinesterase is 122 nM; on Cholinesterase, 0.064 nM.

Turning to `CC(C)(C)OC(=O)N[C@@H](CCCCNC(=O)OCc1ccccc1)C(=O)NCCCCCNc1c2c(nc3ccccc13)CCCC2`, the KA in assay [1] is greater than 50 µM; in assay [2] it was greater than 50 µM; in assay [3], greater than 50000 nM; in assay [4], greater than 50000 nM; in assay [5] it was greater than 50000 nM. In addition, the IC50 against Acetylcholinesterase came to 299 nM; against Cholinesterase it was 0.34 nM.

For the compound `CC(C)(C)OC(=O)N[C@@H](Cc1cn(C(=O)OC(C)(C)C)cn1)C(=O)NCCCCCCNc1c2c(nc3ccccc13)CCCC2`, the KA is greater than 50 µM in assay [1]; greater than 50 µM in assay [2]; greater than 50000 nM in assay [3]; greater than 50000 nM in assay [4]; 10000 nM in assay [5] (filed as activator). In addition, the IC50 on Acetylcholinesterase stood at 14.5 nM; at Cholinesterase, 0.44 nM.

Regarding `CC(C)(C)OC(=O)N[C@@H](Cc1cn(C(=O)OC(C)(C)C)cn1)C(=O)NCCCNc1c2c(nc3ccccc13)CCCC2`, the KA in assay [1] is greater than 50 µM; in assay [2] it was greater than 50 µM; in assay [3], greater than 50000 nM; in assay [4], greater than 50000 nM; in assay [5] (filed as activator) it was 15900 nM. For the same compound, the IC50 came to 157 nM against Acetylcholinesterase and 3.6 nM on Cholinesterase.

Turning to `NCCc1c[nH]cn1`, the KA in assay [1] (filed as activator) is 3.5 µM; in assay [2] (filed as activator), 25 µM; in assay [3] (filed as activator), 37000 nM; in assay [4] (filed as activator), 2100 nM; in assay [5], greater than 100000 nM.
